The values below come from publication PMC4490105 (Cell reports, 2015).

Assay [1] has as its system influenza A/PR/8/34 (PR8). Particulars: ref Shirey et al., 2013; cited from earlier work.
For assay [2], the system named is TLR7. Description: R848. Conditions: murine macrophages; R848 (2.85 μM); Figure 2E, F. Type of assay: cell-based, mouse.
In assay [3] the target is NF-kB activator 1 CC loop decoy peptide SEFIR CC loop (Homo sapiens) (UniProt O43734). Description: SPR. Conditions: cited from earlier work.

By Kd is commonly meant the equilibrium constant for the complex coming apart.

Sequence of IL-17RA (Q96F46 33-866): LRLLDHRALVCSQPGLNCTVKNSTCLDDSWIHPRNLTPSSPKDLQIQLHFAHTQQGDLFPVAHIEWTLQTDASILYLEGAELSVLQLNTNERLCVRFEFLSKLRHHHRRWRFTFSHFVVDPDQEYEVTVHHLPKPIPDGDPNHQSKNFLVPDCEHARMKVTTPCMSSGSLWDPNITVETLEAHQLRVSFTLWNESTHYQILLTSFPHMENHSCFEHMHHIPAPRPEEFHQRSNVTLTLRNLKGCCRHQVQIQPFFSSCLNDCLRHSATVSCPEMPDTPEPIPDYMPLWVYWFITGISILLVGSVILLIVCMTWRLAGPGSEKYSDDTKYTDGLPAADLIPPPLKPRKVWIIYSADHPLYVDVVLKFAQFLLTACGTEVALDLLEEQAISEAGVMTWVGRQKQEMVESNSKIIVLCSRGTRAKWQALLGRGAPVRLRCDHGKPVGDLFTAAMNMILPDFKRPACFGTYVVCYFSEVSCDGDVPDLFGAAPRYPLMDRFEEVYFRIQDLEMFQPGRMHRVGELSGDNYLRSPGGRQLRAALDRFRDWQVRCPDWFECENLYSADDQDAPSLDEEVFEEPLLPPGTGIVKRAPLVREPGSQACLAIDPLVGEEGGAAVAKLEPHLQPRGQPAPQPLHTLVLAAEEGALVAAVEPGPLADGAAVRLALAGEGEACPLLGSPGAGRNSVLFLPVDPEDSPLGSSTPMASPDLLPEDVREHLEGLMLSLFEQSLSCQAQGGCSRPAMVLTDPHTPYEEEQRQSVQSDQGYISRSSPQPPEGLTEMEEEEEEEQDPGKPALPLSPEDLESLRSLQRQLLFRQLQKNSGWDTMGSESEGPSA

As to `CCCCCC/C=C\CCCCCCCCCC(=O)N[C@H]1[C@H](OC[C@H]2O[C@H](OP(=O)(O)O)[C@H](NC(=O)CC(=O)CCCCCCCCCCC)[C@@H](OCCCCCCCCCC)[C@@H]2O)O[C@H](COC)[C@@H](OP(=O)(O)O)[C@@H]1OCC[C@@H](CCCCCCC)OC` [Eritoran], in assay [1], the “Protection from PR8 infection, TLR2−/− mice” value is “could not be protected” and the “Protection from PR8 infection, mice” value is “protected mice from PR8 infection”.
Take `CCOCc1nc2c(N)nc3ccccc3c2n1CC(C)(C)O` [R848]: the “Induction of TNF-α and IL-6” value in assay [2] is recorded as “induced robust production”.
Consider IL-17RA (from UniProt Q96F46), for which the equilibrium dissociation constant (Kd) in assay [3] is 117 µM.
